Source: US20120148637A1, “NANOPARTICULATE OLMESARTAN MEDOXOMIL COMPOSITIONS, PROCESS FOR THE PREPARATION THEREOF AND PHARMACEUTICAL COMPOSITIONS CONTAINING THEM” (priority 2009, published 2012)

Columns and labels:
[1] = rat, in vivo, po, 20 mg/kg
Procedure: The single oral dose of reference Olmesartan Medoxomil was 20 mg/kg, and that of nanostructured Olmesartan Medoxomil formulation was 75.8 mg/kg which corresponds to 20 mg/kg active agent. Both test substances were administered via gastric tube in a dosing volume of 5 ml/kg. The vehicle of the test items was sterile 0.9% NaCl solution supplemented with 0.25% methylcellulose and the suspension was kept homogenous by continuous stirring during treatment in order to minimize the error resulting from the sedimentation.
Male Wistar rats (purchased from Laboratory Animal Center, University of Szeged) were maintained on a standard pellet rodent diet (Bioplan Ltd, Isaszeg, Hungary) under temperature and light-controlled conditions with tap water available ad libitum. The acclimatization period was at least 4 days. Rats were randomized into groups of 6 and each group was used for blood sampling at different time period after Olmesartan Medoxomil treatment. All animals were fasting for 16 hours before oral treatment. […]
An aliquot of 200 μl serum was combined with 20 μl of internal standard working solution and 1.2 ml methanol for protein precipitation. […] Serum Olmesartan concentrations were determined using a standard curve set up from Olmesartan prepared from Olmesartan Medoxomil by enzymatic hydrolysis. […]

[2] = cited from earlier work
[3] = cited from earlier work; remark: listed apart in the source
[4] = cited from earlier work; remark: listed apart in the source
[5] = rats; cited from earlier work

Area under the serum concentration curve between 15 and 360 min (AUC15-360 min) [1] [µg·min/mL]	tmax [1] [h]	SMILES	solubility in methanol ([2]; methanol)	solubility in water ([2]; water)	absolute bioavailability ([3]; in vivo)	effect of food on bioavailability ([3]; in vivo)	renal clearance ([3]; in vivo) [L/h]	terminal elimination half-life ([3]; in vivo)	total plasma clearance ([3]; in vivo) [L/h]	accumulation in plasma ([3]; once-daily dosing)	bound to plasma proteins [4] [%]	crossing of the blood-brain barrier [5]	distribution to milk [5]	passage across the placental barrier [5]
382.5	2	CCCc1nc(C(C)(C)O)c(C(=O)OCc2oc(=O)oc2C)n1Cc1ccc(-c2ccccc2-c2nnn[nH]2)cc1 [Olmesartan Medoxomil, 2,3-dihydroxy-2-butenyl 4-(1-hydroxy-1-methylethyl)-2-propyl-1-[p-(o-1H-tetrazol-5-ylphenyl)benzyl]imidazole-5-carboxylate, cyclic 2,3-carbonate]	sparingly soluble	practically insoluble										
		CCCc1nc(C(C)(C)O)c(C(=O)O)n1Cc1ccc(-c2ccccc2-c2nnn[nH]2)cc1 [Olmesartan]			approximately 26%	Food does not affect the bioavailability	0.6	approximately 13 hours	1.3	no accumulation in plasma	99	crossed the blood-brain barrier poorly, if at all	distributed to milk at low levels	passed across the placental barrier
